Paper PMC11521309, “A novel 4-aminoquinoline chemotype with multistage antimalarial activity and lack of cross-resistance with PfCRT and PfMDR1 mutants” (PLOS Pathogens, 2024)
Values joined by “and” are separate entries in the source; they are usually repeats but may differ in a detail not shown here. Equal values may be shown once.

How the values were obtained:
P. falciparum 7G8^F145I = system: P. falciparum 7G8^F145I; design: key to Phenotype, 7G8^F145I: S: sensitive; R: resistant; settings: cited from earlier work
P. falciparum 7G8^7G8 = system: P. falciparum 7G8^7G8; design: key to Phenotype, 7G8^7G8: S: sensitive; R: resistant; settings: cited from earlier work
P. falciparum Dd2^G353V = system: P. falciparum Dd2^G353V; design: key to Phenotype, Dd2^G353V: S: sensitive; R: resistant; settings: cited from earlier work
P. falciparum Dd2^F145I = system: P. falciparum Dd2^F145I; design: key to Phenotype, Dd2^F145I: S: sensitive; R: resistant; settings: cited from earlier work
P. falciparum FCB^KD1 = system: P. falciparum FCB^KD1; design: method as in ref 2 Sidhu et al. 2006; settings: means ± SEM, N 4; ref 2 Sidhu et al. 2006; read-out: IC50 FCBKD1; cited from earlier work
[1] = system: PfCRT variants (7G8, 7G8^F145I, 7G8^C350R); assay: SSM-based electrophysiology (SURFE2R N1) of PfCRT proteoliposomes; format: biochemical, Plasmodium falciparum; settings: 10 μM, distinct PfCRT isoforms
Procedure: Solid Supported Membrane (SSM)-based electrophysiological measurements were performed using SURFE^2R N1 technology (Nanion Technologies, Inc.) according to published protocols. Briefly, sensors were coated with 1-octadecanethiol (Sigma-Aldrich), rinsed, and 1,2-diphytanoyl-sn-glycero-3-phosphocholine (Avanti Polar Lipids, Inc) was added. Immediately, the sensor was filled with 50 μL non-activating buffer (10 mM Tris-MES, pH 5.5) and PfCRT-containing proteoliposomes (PLs). To generate a K^+ diffusion potential-driven ΔΨ, valinomycin was included at a final concentration of 80 nM [34, 35]. The activating solution (10 mM Tris-MES, pH 5.5 containing either 10 μM CQ, PPQ, LDT-623, pyrimethamine, or atovaquone) was applied using a single-solution exchange protocol (activating buffer incubation for 1 second). Each measurement was repeated at least twice employing at least three different sensors. Peak currents for PfCRT were corrected by subtracting the peak currents recorded with control liposomes (lacking this transporter). To acquire the PfCRT-elicited charge (Coulomb) movement associated with drug transport, the area under the curve (current as a function of time) was analyzed with GraphPad Prism version 10.

[2] = system: P. falciparum NF54-Pfs16-GFP-Luc stage IV-V gametocytes; assay: Mature gametocyte (stages IV-V) viability, luciferase, 48 h; format: cell-based, Plasmodium falciparum; settings: 5 μM
Procedure: P. falciparum NF54-Pfs16-GFP-Luc (MRA-1217), a highly gametocyte-producing strain, was cultured following standard procedures. NF54-Luc ABS parasites were sorbitol-synchronized as previously described and cultured to reach 8–10% parasitemia as mature trophozoites prior to starting gametogenesis induction via nutrient deficit stress. Briefly, stress was induced by replacing only 40% of the culture medium and returning cultures to a 37°C incubation. Cultures were treated with 50 mM N-acetylglucosamine for 10 days to remove ABS parasites. Mature gametocytes (stages IV-V) were isolated using magnetic columns and incubated at 2% gametocytemia and 1.5% hematocrit in 96-well plates containing the test compounds for 48 hours at 37°C, following standard P. falciparum culturing conditions. Methylene blue was used as a gametocytocidal control alongside drug-free wells. Luciferase activity was assessed by adding 40 μL of luciferin substrate (Promega) to 40 μL of parasite lysates and detecting bioluminescence at an integration constant of 10s with the BioTek Cytation 5 Cell Imaging Multimode Reader.

[3] = system: pool of barcoded P. falciparum lines (Dd2 and 3D7 backgrounds); assay: Resistome growth assay, pool of 51 barcoded lines; format: cell-based, Plasmodium falciparum; settings: 3 × IC50 constant, 14 days
Procedure: The resistome growth assay employs a parasite pool consisting of 51 barcoded lines including both Dd2 and 3D7 genetic backgrounds, with wild-type lines for both (S3 Table). Most lines used were derived from in vitro resistance selection experiments, with others having been CRISPR edited. All lines were barcoded via CRISPR editing of a 101bp barcode cassette into the non-essential pfpare locus (PF3D7_0709700). Parasites were cultured in RPMI-1640 medium supplemented with HEPES (5.94 g/L), NaHCO3 (2.1 g/L), glutamax (1×), hypoxanthine (50 mg/L), gentamycin ([…]), and AlbumaxII (5 g/L) at a […]. Parasite growth was monitored over 14 days by flow cytometry (Cytoflex, Beckman Coulter) by staining with 1× SYBR Green and 0.2 μM MitoTracker Deep Red. Parasitemia adjustments were made to maintain a healthy range of <5% parasitemia. Parasite cultures were harvested at day 14 and lysed by saponin (0.05%), with pellets washed twice with PBS. Barcodes were PCR amplified using 5 μL of parasite pellet and sequenced by Illumina amplicon sequencing.

[4] = system: P. berghei PbGFP-Luccon liver stage; assay: In vitro inhibition of liver stage infection of Huh-7 cells, bioluminescence; format: cell-based, Plasmodium berghei
Procedure: In vitro inhibition of Plasmodium liver stage infection was assessed using bioluminescence data from Huh-7 cells infected with a firefly-luciferase-expressing P. berghei line, PbGFP-Luccon, in the presence of various compound concentrations. […] One day before drug treatment and infection, 10^4 Huh-7 cells/well were seeded in 96-well plates. The medium was then replaced by an infection medium (culture medium supplemented with 50 μg/mL gentamycin and 0.8 μg/mL amphotericin B) containing desired concentrations of test compounds. Fresh sporozoites recovered from salivary glands of infected female Anopheles stephensi mosquitoes were added to seeded Huh-7 cells at a 1:1 proportion, followed by centrifugation at 1700g for 5 minutes and incubation for 46 hours at 37°C under 5% CO2. Compound toxicity against Huh-7 cells was assessed by measuring […] using the Alamar Blue assay (Invitrogen). IC50 values were calculated using nonlinear regression analysis (GraphPad Prism version 9).

In the case of `CCN(CC)CCCC(C)Nc1ccnc2cc(Cl)ccc12` (stereo not shown) [CQ, chloroquine], the IC50 (P. falciparum 7G8^F145I; 7G8F145I, mean ± SEM, ref 3 (Kim et al., 2019)) is given as 7.3 ± 0.4 nM, the “Phenotype, 7G8^F145I” value (P. falciparum 7G8^F145I; ref [19],[20],[51]) is given as “S” and the IC50 (P. falciparum 7G8^7G8; 7G87G8, mean ± SEM, ref 3 (Kim et al., 2019)) is given as 83 ± 7.5 nM. The “Phenotype, 7G8^7G8” value (P. falciparum 7G8^7G8; ref [19],[20],[51]) was “R”, the IC50 (P. falciparum Dd2^G353V; Dd2G353V, mean ± SEM, ref 1 (Ross et al., 2018)) was 54.6 ± 4.9 nM and the “Phenotype, Dd2^G353V” value (P. falciparum Dd2^G353V; ref [19],[20],[51]) was “S”. The IC50 (P. falciparum Dd2^F145I; Dd2F145I, mean ± SEM, ref 1 (Ross et al., 2018)) was 19.3 ± 1.3 nM, the “Phenotype, Dd2^F145I” value (P. falciparum Dd2^F145I; a: sensitized to CQ compared to the parental line but not fully sensitive, ref [19],[20],[51]) was “S ^a” and the IC50 (P. falciparum FCB^KD1) was 242 ± 43.9 nM.
With `COc1cc2nccc(Nc3cccc(Oc4ccccc4)c3)c2cc1OC` [LDT-623] the “PfCRT-specific currents” value [1] was “elicits the same magnitude of currents as CQ and PPQ”, the “% Inhibition of viability, mature gametocytes” value ([2]; mean, N = 3) was 62% and 61.67% and the “% Inhibition of viability, mature gametocytes” value ([2]; single replicates) was 78.00% and 67.00% and 40.00%. For the same compound, the “growth recovery of barcoded pool” value [3] was “no growth recovery”, the “% Infection” value ([4]; 0.01 µM, Average) was 105.58% and the “% Infection” value ([4]; 0.01 µM, Rep #1, Rep #2 singly, DMSO = 100) was 99.71% and 111.44%. For the same compound, the “% Infection” value ([4]; 0.10 µM, Average) was 109.90%, the “% Infection” value ([4]; 0.10 µM, Rep #1, Rep #2 singly, DMSO = 100) was 116.90% and 102.90% and the “% Infection” value ([4]; 0.50 µM, Average) was 89.46%. The “% Infection” value ([4]; 0.50 µM, Rep #1, Rep #2 singly, DMSO = 100) was 98.58% and 80.35%, the “% Infection” value ([4]; 1.00 µM, Average) was 47.89% and the “% Infection” value ([4]; 1.00 µM, Rep #1, Rep #2 singly, DMSO = 100) was 59.84% and 35.94%. The “% Infection” value ([4]; 1.50 µM, Average) was 16.43%, the “% Infection” value ([4]; 1.50 µM, Rep #2 only, DMSO = 100) was 16.43% and the “% Infection” value ([4]; 2.00 µM, Average) was 10.50%. For the same compound, the “% Infection” value ([4]; 2.00 µM, Rep #1, Rep #2 singly, DMSO = 100) was 13.79% and 7.22%, the “% Infection” value ([4]; 3.00 µM, Average) was 3.61% and the “% Infection” value ([4]; 3.00 µM, Rep #1, Rep #2 singly, DMSO = 100) was 5.04% and 2.18%. The “% Infection” value ([4]; 4.00 µM, Average) was 3.01%, the “% Infection” value ([4]; 4.00 µM, Rep #1 only, DMSO = 100) was 3.01% and the inhibition at 1 µM ([4]; Plasmodium berghei, Huh-7, 1 μM, read-out: inhibition of hepatic infection) was 52.1%. The IC50 ([4]; Plasmodium berghei, Huh-7 cells, P. berghei sporozoites, 48h, N = 2, read-out: IC50 hepatic stage infection) was 983 nM.
